Columns and labels:
Rattus norvegicus [1] = test: Compound was tested for mean arterial pressure in the spontaneously hypertensive rat, activity expressed as mean arterial pressure before peroral administration of 0.17 mg/Kg dose; assay type: functional, Artery
Rattus norvegicus [2] = test: Compound was tested for mean arterial pressure in the spontaneously hypertensive rat, activity expressed as maximum % change in pressure after 3 hours of oral administration of 1.5 mg/Kg; assay type: functional, Artery

## CC1(C)Oc2ccc(OC(F)(F)F)cc2[C@@H](NC(=O)c2ccco2)[C@@H]1O
Rattus norvegicus [1]
  Mean arterial blood pressure: 175 mmHg
Rattus norvegicus [2]
  Change: -30%

## CC1(C)c2ccc(C#N)cc2[C@@H](NC(=O)c2ccco2)[C@@H]1O
Rattus norvegicus [1]
  Mean arterial blood pressure: 182 mmHg
Rattus norvegicus [2]
  Change: -35%

## CC1(C)Oc2ccc(C#N)cc2[C@@H](N2Cc3ccccc3C2=O)[C@@H]1O
Rattus norvegicus [1]
  Mean arterial blood pressure: 173 mmHg
Rattus norvegicus [2]
  Change: -23%

## CC1(C)Oc2ccccc2[C@@H](N2Cc3ccccc3C2=O)[C@@H]1O
Rattus norvegicus [1]
  Mean arterial blood pressure: 184 mmHg
Rattus norvegicus [2]
  Change: -26%

## CC1(C)Oc2ccc(OC(F)(F)F)cc2[C@@H](N2Cc3ccccc3C2=O)[C@@H]1O [CELIKALIM]
Rattus norvegicus [1]
  Mean arterial blood pressure: 180 mmHg
Rattus norvegicus [2]
  Change: -28%

## CC1(C)Oc2ccc(C#N)cc2[C@@H](N2CCCC2=O)[C@@H]1O [CROMAKALIM]
Rattus norvegicus [1]
  Mean arterial blood pressure: 171 mmHg
Rattus norvegicus [2]
  Change: -28%
